Laboratory results from patent publication US8906946B2, “TRPM8 receptor antagonists” (Dompe' S.p.A., priority 2011, dated 2014).

The compounds below were run against T1, human TRPM8 (Homo sapiens, UniProt Q7Z2W7) (assay: High-throughput FLIPR TETRA calcium fluorescence assay for TRPM8 antagonists in HEK293/hTRPM8 cells). Conditions: agonist Cooling Agent 10 at EC80, Ca2+ fluorescence.
T1 sequence (Q7Z2W7 whole entry): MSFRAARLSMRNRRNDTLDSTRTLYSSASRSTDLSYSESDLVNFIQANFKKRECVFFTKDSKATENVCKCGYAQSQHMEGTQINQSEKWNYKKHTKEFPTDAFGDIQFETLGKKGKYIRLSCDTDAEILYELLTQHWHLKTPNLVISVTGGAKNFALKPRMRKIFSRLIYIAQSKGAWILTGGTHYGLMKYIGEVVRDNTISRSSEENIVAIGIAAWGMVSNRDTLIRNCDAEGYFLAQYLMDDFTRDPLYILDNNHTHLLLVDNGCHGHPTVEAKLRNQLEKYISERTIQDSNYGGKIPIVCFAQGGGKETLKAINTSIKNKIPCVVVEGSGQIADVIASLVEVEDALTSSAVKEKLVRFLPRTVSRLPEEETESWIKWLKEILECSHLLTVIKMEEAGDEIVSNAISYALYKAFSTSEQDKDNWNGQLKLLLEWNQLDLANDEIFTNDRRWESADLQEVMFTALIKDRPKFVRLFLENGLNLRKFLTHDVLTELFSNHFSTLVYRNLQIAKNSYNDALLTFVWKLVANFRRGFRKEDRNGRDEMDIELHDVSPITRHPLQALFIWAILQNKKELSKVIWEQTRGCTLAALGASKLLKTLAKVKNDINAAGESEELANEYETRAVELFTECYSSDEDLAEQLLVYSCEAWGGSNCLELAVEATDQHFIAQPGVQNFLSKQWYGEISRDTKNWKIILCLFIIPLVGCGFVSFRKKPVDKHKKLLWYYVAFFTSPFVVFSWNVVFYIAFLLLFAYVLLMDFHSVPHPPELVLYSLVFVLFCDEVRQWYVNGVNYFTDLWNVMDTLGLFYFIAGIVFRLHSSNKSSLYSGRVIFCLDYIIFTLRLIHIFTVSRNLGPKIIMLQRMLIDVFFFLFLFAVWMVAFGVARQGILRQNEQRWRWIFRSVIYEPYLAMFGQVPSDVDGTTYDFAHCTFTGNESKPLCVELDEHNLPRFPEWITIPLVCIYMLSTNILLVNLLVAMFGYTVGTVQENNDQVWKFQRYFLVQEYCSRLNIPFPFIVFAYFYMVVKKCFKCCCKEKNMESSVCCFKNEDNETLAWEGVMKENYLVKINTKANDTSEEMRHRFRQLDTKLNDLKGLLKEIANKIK
Assay type: cell-based
Design: expressed in transfected cells
Text: A functional cell-based assay for the identification of TRPM8 receptor antagonists, optimised to allow high throughput screening at FLIPR^TETRA, was developed in HEK293 cells by stable pure clone selection and functional characterization with a fluorescent calcium sensitive dye.
TRPM8 was cloned into the multiple clonig site of pcDNA3 mammalian expression vector; the obtained construct pcDNA3/hTRPM8 was fully sequence verified and used for the transfection of HEK293 cell line. HEK293 cells stably transfected with TRPM8 gene were maintained in Minimum essential medium. The cells were transfected with the pcDNA3/hTRPM8 vector by electroporation and then selected with medium containing 0.8 mg/ml G418 for 10-15 days.
The following commercial compounds were used as ligands: • Activator: Cooling Agent 10 (Takasago CAS N. 87061-04-9) • Blocker: Capsazepine (SIGMA cat #D—5879)
The experimental activities were performed using FLIPR^TETRA instruments.
HEK293 cells stably transfected with TRPM8 gene were maintained in Minimum essential medium.
The TRPM8 cell line was analysed for the response to a library of compounds using a Ca^2+ mobilization-dependent fluorescence signal in 384 wells microtiter plate format. The analysis was performed using the FLIPR^TETRA (MDC) with the ICCD Camera.
The execution of the assay involved the use of three microtiter plates:
1. Assay plate, containing cells loaded with dye and prepared as follows:
Cells were seeded at 15000 c/well in Poly-D-Lysine coated 384 wells Microtiter Plates in complete medium (25 μl/well).
24 h after seeding, the cell plates were washed with Tyrode assay buffer by the Microplate Washer and 10 μL of Tyrode assay buffer was left in each well.
Cells were then loaded with 10 μL/well of the Fluo-4 NW dye solution by CyBi®-Well pipettor. Each bottle of Fluo4-NW dye (Molecular Probes cat. #F36206, component A) was re-suspended in 8 mL of Tyrode assay buffer and supplemented with 100 μL of water-soluble probenecid (MolecularProbes cat.#F36206, component B).
Dye loaded cell plates were incubated for 1 h at room temperature.
2. Compound Dilution Plate (FIG. 1), containing diluted test compounds, formulated as follows: • Column 1: wells containing Assay Buffer plus DMSO 0.5% final • Column 2: wells alternating Max Signal Control in first injection (Maximum Response: Cooling Agent 10 at EC100, 100 μM) and Min Signal Control in first injection (Assay buffer plus 0.5% DMSO final); • Columns 3-22: wells containing Assay Buffer plus 0.5% DMSO final. To these wells the compounds to be tested were added at 3× concentration. • Column 23: alternating wells of Max Signal Control in second injection (Assay buffer) and Min Signal Control in second injection (Antagonist Capsazepine IC100, 50 μM) in Assay buffer plus 0.5% DMSO final; • Column 24: wells containing Capsazepine (Antagonist) at 8 concentrations in duplicate at final concentrations of […] in Assay buffer plus 0.5% DMSO final.
3. Activator Plate (FIG. 2), containing agonist Cooling Agent 10 at EC80, formulated as follows: • Column 1: Cooling Agent 10 (Agonist) at 8 concentrations dose response in duplicate at final concentrations of […] in Assay buffer; • Columns 2-24: Cooling Agent 10 (Agonist) at EC80 (3 fold concentrated, 20 μM final) in Assay buffer.
The test was carried out according to a procedure comprising the following steps: • 1. The samples contained in the wells of the Compound Plate were added to the corresponding wells of the Assay Plate by the FLIPR^TETRA, thus resulting in the addition in Columns 3-22 of the test compounds at 3× concentration to the cells of the assay plates. No mixing was performed in the assay wells and the signal of the emitted fluorescence was recorded for 300 seconds. • 2.
`Clc1ccc(CNCCCc2ccc3ccccc3c2Cl)o1` [Compound 34, N-[(5-chlorofuran-2-yl)methyl]-3-(1-chloronaphthalen-2-yl)propan-1-amine] was tested, and the IC50 was < 10 µM.
With `N#Cc1ccc2c(Cl)c(OCCNCc3ccccn3)ccc2c1` [Compound 55, 5-chloro-6-{2-[(pyridin-2-ylmethyl)amino]ethoxy}naphthalene-2-carbonitrile] the IC50 was < 10 µM.
`Cn1cccc1CNC(C)(C)COc1ccc2ccccc2c1Cl` [Compound 14, 1-[(1-chloronaphthalen-2-yl)oxy]-2-methyl-N-[(1-methyl-1H-pyrrol-2-yl)methyl]propan-2-amine] was tested, and the IC50 was < 10 µM.
With `O=S(=O)(CCNCc1ccco1)c1ccc2ccccc2c1Cl` [Compound 25, 2-[(1-chloronaphthalen-2-yl)sulfonyl]-N-(furan-2-ylmethyl)ethanamine] the IC50 was < 10 µM.
`N#Cc1ccc2c(Cl)c(OCCNCc3cccs3)ccc2c1` [Compound 60, 5-chloro-6-{2-[(thiophen-2-ylmethyl)amino]ethoxy}naphthalene-2-carbonitrile] was tested, and the IC50 was < 10 µM.
`Clc1c(OCCNCc2ccccn2)ccc2ccccc12` [Compound 6, 2-[(1-chloronaphthalen-2-yl)oxy]-N-(pyridin-2-ylmethyl)ethanaminium] was tested, and the IC50 was < 10 µM.
`Fc1c(OCCNCc2ccco2)ccc2ccccc12` [Compound 48, 2-[(1-fluoronaphthalen-2-yl)oxy]-N-(furan-2-ylmethyl)ethanamine] was tested, and the IC50 was < 10 µM.
`Cc1ccc(CNCCCc2ccc3ccccc3c2Cl)o1` [Compound 33, 3-(1-chloronaphthalen-2-yl)-N-[(5-methylfuran-2-yl)methyl]propan-1-amine] was tested, and the IC50 was < 10 µM.
For `Fc1c(OCCNCc2cccs2)ccc2ccccc12` [Compound 52, 2-[(1-fluoronaphthalen-2-yl)oxy]-N-(thiophen-2-ylmethyl)ethanamine], the IC50 was < 10 µM.
`CC(C)(COc1ccc2ccccc2c1Cl)NCc1ccco1` [Compound 8, 1-[(1-chloronaphthalen-2-yl)oxy]-N-(furan-2-ylmethyl)-2-methylpropan-2-amine] was tested, and the IC50 was < 10 µM.
With `Fc1c(OCCNCc2ccccn2)ccc2ccccc12` [Compound 53, 2-[(1-fluoronaphthalen-2-yl)oxy]-N-(pyridin-2-ylmethyl)ethanamine] the IC50 was < 10 µM.
With `Clc1c(OCCNCc2cccs2)ccc2ccccc12` [Compound 5, 2-[(1-chloronaphthalen-2-yl)oxy]-N-(thiophen-2-ylmethyl)ethanaminium] the IC50 was < 10 µM.
For `Clc1ccc(CNCCCc2ccc3ccccc3c2Cl)s1` [Compound 35, 3-(1-chloronaphthalen-2-yl)-N-[(5-chlorothiophen-2-yl)methyl]propan-1-amine], the IC50 was < 10 µM.
With `Clc1c(CCCNCc2ccco2)ccc2ccccc12` [Compound 32, 3-(1-chloronaphthalen-2-yl)-N-(furan-2-ylmethyl)propan-1-amine] the IC50 was < 10 µM.
For `CC(C)(COc1ccc2ccccc2c1Cl)NCc1ccccn1` [Compound 13, 1-[(1-chloronaphthalen-2-yl)oxy]-2-methyl-N-(pyridin-2-ylmethyl)propan-2-amine], the IC50 was < 10 µM.

Each compound was assayed against T1, human TRPM8 (assay: FLIPR384 capsazepine antagonist activity on menthol agonist response in selected TRPM8 clone). Conditions: FLIPR384, antagonist from 100 nM to 316 μM.
Assay type: cell-based
Design: expressed in transfected cells
Experimental: The experimental activities were performed using FLIPR instruments.
Patch clamp recordings were also obtained in voltage-clamp configuration on HEK/TRPM8 clones in order to verify the receptor pharmacology and to determine the agonist dose-response curve and EC50 value. HEK293 cells were […] having 1.5-2.5 MΩ resistance were used to record currents following drug application. […] No menthol-induced currents were recorded in non transfected HEK293 cells.
With `Oc1cc2c(cc1O)CN(C(=S)NCCc1ccc(Cl)cc1)CCC2` [capsazepine, Capsazepine] the IC50 was 20 µM.
